Measured values from patent US20080306166A1, “Compositions and Methods For Treatment of Disorders of Protein Aggregation” (priority 2004, published 2008).

Tests used:
Aβ = molecular target: T1, Aβ (Homo sapiens, UniProt P05067); settings: cited from earlier work
T1 construct: Inositol stereoisomers stabilize an oligomeric aggregate of Alzheimer amyloid beta peptide

[1] = Pilot in vivo studies with myo-cyclohexanehexyl; settings: data not shown
Text: The TgCRND8 mice and non-transgenic littermates were assigned to sex- and age-matched cohorts that were then used to test the effectiveness of the cyclohexanehexyl stereoisomers as a therapeutic (with treatment delayed until five months of age and continued for one month until six months of age). […] The endpoints were cognitive function, brain Aβ levels, and neuropathology. […] Over the course of these experiments, observers were unaware of genotype or treatment group.

[2] = 6-18 grams/day/adult or 86-257 mg/Kg/day; cited from earlier work

T1 sequence (P05067 672-713 limits assumed): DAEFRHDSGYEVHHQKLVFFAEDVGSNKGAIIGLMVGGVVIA

SMILES: O[C@H]1[C@H](O)[C@@H](O)[C@H](O)[C@@H](O)[C@H]1O [myo-cyclohexanehexyl, 1,2,3,5/4,6-(myo-) cyclohexanehexyl]
- effectiveness in prior in vitro studies (Aβ): only weakly effective
- benefit in pilot in vivo studies [1]: no significant benefit
- toxicity in humans or animals [2]: no toxicity
